From patent US20240285670A1, “THERAPEUTIC TREATMENT OF TUMORS BY BLOCKING THE HEME SYNTHESIS-EXPORT AXIS” (Università degli Studi di Torino, priority 2021, published 2024)

What was measured:
Caco2 cells [1] = assay: Activity of mitochondrial ETC complexes I-IV in Caco2 cells; assay type: cell-based, human; settings: FLVCR1a-silenced vs scramble shRNA Caco2 cells
Source text: (A, C, E) Activities of the mitochondrial electron transport chain complexes I-IV. FLVCR1a-silenced Caco2 (A), SKCO1 (C) or C80 cells (E) are compared to cells expressing a scramble shRNA. Results were expressed as nmol NAD^+/min/mg mitochondrial protein for complex I, nmol reduced cytochrome c/min/mg mitochondrial protein for complexes II-III, nmol oxidized cytochrome c/min/mg mitochondrial protein for complex IV. Data represent mean±SEM, n=3. For statistical analyses, an unpaired Student's t-test was used; *=p<0.05, **=p<0.01. (B, D, F) Mitochondrial ATP levels measured by a bioluminescent assay kit. FLVCR1a-silenced Caco2 (B), SKCO1 (D) or C80 cells (F) are compared to cells expressing a scramble shRNA. Results are expressed as nmol/mg mitochondrial proteins. Data represent mean±SEM, n=3. […] Results were expressed as nmol NAD^+/min/mg mitochondrial protein for complex I, nmol reduced cytochrome c/min/mg mitochondrial protein for complexes II-III, nmol oxidized cytochrome c/min/mg mitochondrial protein for complex IV. […] (H) Mitochondrial ATP levels measured by a bioluminescent assay kit in Caco2 cells overexpressing FLVCR1a (indicated as FLVCR1a+) compared to cells stably transduced with an empty vector. Results are expressed as nmol/mg mitochondrial proteins. […]
The activity of mitochondria respiration complexes was measured according to (Wibom et al., 2002).

Caco2 cells [2] = assay: TCA cycle enzymes activities in Caco2 cells; assay type: cell-based, human; settings: FLVCR1a knockdown vs scramble shRNA Caco2 cells
Source text: TCA cycle flux is reported in the centre of the figure and expressed as pmol CO2/h/mg protein. Data represent mean±SEM, n=3. For statistical analyses, an unpaired Student's t-test was used. **=p<0.01. Moreover, TCA cycle enzymes activities are reported in boxes and expressed as mU/mg mitochondrial proteins. Data represent mean±SEM, n=3. For statistical analyses, an unpaired Student's t-test was used; *=p<0.05, ***=p<0.001. […] Results are expressed as pmol CO2/h/mg protein. Data represent mean±SEM, n=3. For statistical analyses, an unpaired Student's t-test was used; *=p<0.05, **=p<0.01. […]
The enzymatic activities of citrate synthase, α-ketoglutarate dehydrogenase, succinate dehydrogenase and malate dehydrogenase were measured on 10 μg mitochondrial proteins using the Citrate Synthase Assay Kit (Sigma Aldrich, St. Louis, MO USA, catalog n° MAK193), Alpha Ketoglutarate (alpha KG) Assay Kit (Abcam, Cambridge, UK, catalog n° ab83431), Malate Dehydrogenase Assay Kit (Sigma Aldrich, St. Louis, MO USA, catalog n° MAK196), Succinate Dehydrogenase Activity Colorimetric Assay Kit (BioVision, Milpitas, CA USA, catalog n° K660), as per manufacturer's instructions. Results were expressed as mU/mg mitochondrial proteins.

Question: For “FLVCR1a shRNA: shRNA specifically down-regulating FLVCR1a without targeting FLVCR1b; pLKO.1 lentiviral clone TRCN0000059599, antisense SEQ ID No.: 2 (antisense TTGCTAATGATGCTGTACTGG; sense CCAGTACAGCATCATTAGCAA)”, which “activity of mitochondrial respiratory chain complexes” value (Caco2 cells [1]) is on record?
Answer: increased activity of all the complexes involved in the mitochondrial respiratory chain

Question: And the “TCA cycle enzymes activity (citrate synthase, α-ketoglutarate dehydrogenase, succinate dehydrogenase, malate dehydrogenase)” value (Caco2 cells [2])?
Answer: enhanced activity
